Article PMC11247627, “Evaluation of Antibacterial Functionalized Dihydropyrimidine Photoaffinity Probes Toward Mechanism of Action Studies” (ACS Medicinal Chemistry Letters, 2024)
Converted amounts (≈) assume the structure as drawn. “And” between values parts separate entries of the source, which are not always exact repeats. Identical values can stand only once. “Also recorded” adds a separate entry of the source.

Experiments:
[1] = system: Staphylococcus aureus ATCC 12600; experiment: Antibacterial broth microdilution assay (MIC), methicillin-sensitive S. aureus ATCC 12600; type: cell-based; conditions: Staphylococcus aureus, ATCC12600; amount inhibiting >95% of growth (A600), 18 h; suffix 'I' = partial growth inhibition at the value, >95% at higher concentrations; read-out: MIC ATCC 12600
Experimental: (§1) These 24 DHP analogues were then screened for inhibition of Staphylococcus aureus growth using microdilution assays. Growth inhibition was examined in methicillin-sensitive S. aureus (ATCC 12600) and two strains of MRSA (ATCC 33591 and ATCC 43300). Antibiotic controls were included in the screen, including carbenicillin, erythromycin, gentamycin, trimethoprim, and vancomycin, and minimum inhibitory concentrations (MICs) were determined for each compound, which were defined as the concentration required to inhibit >95% of bacterial growth (Table 1).
(§2) Antibacterial Microdilution Assay (MIC Determination)
(§3) 1240 The MIC determination assays were performed in a BSL-2 laboratory with appropriate security and biosafety measures. The MICs were determined using a broth microdilution assay closely following the guidelines of the Clinical and Laboratories Standards Institute (CLSI). MICs were determined in duplicate for two biological replicates using 2-fold serial dilutions of test compounds or commercial antibiotics in cation-adjusted Mueller-Hinton broth. The central 60 wells of 96-well plates were 1245 prepared with the compound of interest at the indicated concentration, where 2 µL of the compound in DMSO were added prior to the addition of the culture. Overnight cultures of the different Staphylococcus aureus strains were diluted to provide an initial inoculum of approximately 5 X 10 5 CFU/mL that was delivered to each well in 198 µL of culture (final DMSO concentration of ~1%). Initial inoculum concentrations were verified by plating to count CFU/mL. Each plate was equipped with 1250 experimental controls for full growth (6 wells) and full growth inhibition (6 wells), and all control wells were in the presence of 1% DMSO. The outer 36 wells were filled with 200 µL of culture each to prevent growth effects on the interior 60 wells. The plates were incubated at 37 °C for 18 hours, at which time they were removed from the incubator and were allowed to equilibrate to room temperature for 30 minutes. Absorbance of each well at 600 nm was then read using a microplate reader to 1255 determine the MIC, and visual confirmation of growth inhibition was also performed. If variation was seen in the experimental values, the highest value of two independent trials was listed.

[2] = MTT cytotoxicity assay, HEK293 viability; type: cell-based; conditions: human, HEK293 cells, 24 h treatment
Experimental: After determining that some of our compounds were quite potent for the inhibition of bacterial growth, we next turned toward assessing broader cytotoxicity trends. […] Further, our previously reported derivatives were also screened for red blood cell (RBC) hemolysis, and the assay indicated a lack of RBC lysis at the highest concentrations tested for all compounds (64 μg/mL).[6] […] This indicates it may have secondary mechanisms of cytotoxicity via nonspecific membrane rupturing activity, albeit, at a much higher concentration than its 2 μg/mL MIC. Next, we examined the compounds’ ability to decrease the viability of an immortalized mammalian cell line (HEK293) using a colorimetric MTT assay.[34] To our surprise, all of the compounds screened produced relatively potent cytotoxicity against this cell line. […] We screened a dihydropyrimidine where the guanidine was substituted with a urea (traditional Biginelli reaction derived), and this compound had no bacterial inhibition but continued to have significant mammalian cytotoxicity, further decoupling the antibacterial activity from mammalian cytotoxicity in these cases. Future studies involving the photoaffinity probes will examine the mechanism by which our compounds exert their growth-inhibiting effects in both bacterial and mammalian cells.
Mammalian cytotoxicity was evaluated using a commercially available MTT Cell proliferation assay 1275 (ATCC 30-1010K; Manassas, VA) following the included protocol. Briefly, Human Embryonic Kidney 293 (HEK-293; ATCC CRL-1353) cells were seeded onto 96 well plates (Nunclon Delta; ThermoFisher 167008; Waltham, MA) coated with Poly-D-Lysine (Thermofisher A3890401) at a density of […] cells per well in 80 µL of Eagle's Minimum Essential Medium (EMEM; ATCC 30-2003) with 10% Fetal Bovine Serum (ATCC 30-2021). Cells were incubated at 37 °C in a 5% CO2 atmosphere and allowed to 1280 adhere overnight, and then treated for 24 h with 20 µL of drugs dissolved in PBS with 0.5% DMSO, at concentrations ranging from 1×10^-4 M to 1×10^-9 M. Following treatment, 10 µL of MTT reagent was added to each well and allowed to incubate at 37 °C for 4 h. Then, 100 μL of detergent reagent was added to all wells, and they were stored at room temperature in the dark for 2 h. Absorbance was then read using a multi-mode spectrophotometer (Spectramax i3X; San Jose, CA) at a wavelength of 570 1285 nm. Raw values were normalized to a 0-100% scale using the maximum and minimum responses. To generate dose-response curves and IC50 values, normalized data were plotted against the log of the drug concentrations and fit to nonlinear curve [log(inhibitor) vs. response – variable slope (four parameters)] using GraphPad Prism version 7.05 (GraphPad Software; San Diego, CA).

[3] = system: Staphylococcus aureus ATCC 33591 (MRSA); experiment: Antibacterial broth microdilution assay (MIC), MRSA ATCC 33591; type: cell-based; conditions: Staphylococcus aureus; amount inhibiting >95% of growth (A600), 18 h; suffix 'I' = partial growth inhibition at the value, >95% at higher concentrations; read-out: MIC ATCC 33591
Experimental: as §1, §2, §3

[4] = system: red blood cells (defibrinated sheep blood); experiment: Hemolysis assay (red blood cell lysis); type: cell-based; conditions: concentration producing >20% hemolysis of red blood cells, 1 h, 37 C
Experimental: (§4) 1260 1.5 mL of mechanically defibrinated sheep blood (Hemostat Labs: DSB100) was placed in a microcentrifuge tube and was centrifuged at 10,000 rpm for ten minutes. Following the removal of the supernatant, the cells were resuspended in 1 mL of phosphate-buffered saline (PBS). This process was repeated two more times. The final suspension was diluted ten-fold with PBS and was aliquoted into microcentrifuge tubes containing the compounds which were previously serial diluted in PBS. TritonX 1265 (1% by volume) served as a positive control, while sterile PBS served as a negative control. All samples were incubated at 37 °C and shaken at 200 rpm for 1 hour. After the 1 hour, the samples were centrifuged at 10,000 rpm for 5 minutes and the absorbance of the supernatant was measured via UV spectroscopy at a 540 nm wavelength.

[5] = system: Staphylococcus aureus ATCC 43300 (MRSA); experiment: Antibacterial broth microdilution assay (MIC), MRSA ATCC 43300; type: cell-based; conditions: amount inhibiting >95% of growth (A600), 18 h, suffix 'I' = partial growth inhibition at the value, >95% at higher concentrations; for MIC: Staphylococcus aureus, read-out: MIC ATCC 43300
Experimental: as §1, §2, §3

Staphylococcus aureus = experiment: S. aureus growth inhibition (all three strains or strain not specified); type: cell-based; conditions: for MIC: Staphylococcus aureus, all three S. aureus strains or strain not specified, read-out: concentration inhibiting S. aureus growth (MIC); for antibacterial activity (in words): S. aureus growth
Experimental: as §1, §2, §3

[6] = Hemolysis assay (red blood cell lysis); type: cell-based, sheep; conditions: sheep, washed red blood cells from defibrinated sheep blood; 64 μg/mL; read-out: hemolysis (RBC lysis) at 64 μg/mL
Experimental: as §4

[7] = molecular target: T1, recombinant Staphylococcus aureus DHFR (SaDHFR) (Staphylococcus aureus, UniProt P0A017); experiment: Inhibition of recombinant S. aureus DHFR; type: biochemical; conditions: in vitro
T1 construct: made in house
Experimental: To explore this, oxidization of DHP 7a to the pyrimidine 8a was performed using phenyliodine diacetate (PIDA) (Figure 3a),[12]−[14] as this oxidation state mimics FDA approved antimicrobial DHFR inhibitors trimethoprim 1 (Figure 1a) and pyrimethamine 9 (Figure 3b).

T1 sequence (P0A017 whole entry): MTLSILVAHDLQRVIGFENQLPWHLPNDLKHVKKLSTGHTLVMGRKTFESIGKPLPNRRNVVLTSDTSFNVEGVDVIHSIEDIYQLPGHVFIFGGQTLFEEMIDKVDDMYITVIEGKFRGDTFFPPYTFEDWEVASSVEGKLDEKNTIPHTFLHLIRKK

Compound	MIC [1]	IC50 at 24 h [2]	MIC [3]	lysis20 [4]	MIC [5]	MIC (Staphylococcus aureus)	MIC ATCC 43300 [5]	hemolysis at 1 h, 64 μg/mL [6]	DHFR inhibition (in words) [7]	antibacterial activity (in words) (Staphylococcus aureus)
CCOC(=O)C1=C(c2ccccc2)NC(N)=NC1c1cccc(Cl)c1 (stereo not drawn) [6i]	32 µg/mL (≈ 89.9 µM)	18 µM and 5.8 µg/mL	32 µg/mL (≈ 89.9 µM)	>64 µg/mL	32 µg/mL (≈ 89.9 µM)	–	–	–	–	–
CCOC(=O)C1=C(c2ccccc2)NC(N)=NC1c1cc(Cl)cc(Cl)c1 (stereo not drawn) [6j]	8 µg/mL (≈ 20.5 µM)	11 µM and 3.5 µg/mL	–	>64 µg/mL	8 µg/mL (≈ 20.5 µM)	–	–	–	–	–
CCOC(=O)C1=C(c2ccccc2)NC(N)=NC1c1ccc(C(C)C)cc1 (stereo not drawn) [6r]	–	9.5 µM and 3.1 µg/mL	–	>64 µg/mL	8 µg/mL (≈ 22 µM)	8 µg/mL (≈ 22 µM)	–	–	–	–
CCOC(=O)C1=C(c2ccccc2)NC(N)=NC1c1ccccc1OC (stereo not drawn) [6s]	> 64 µg/mL	87 µM and 28 µg/mL	> 64 µg/mL	>64 µg/mL	> 64 µg/mL	–	>64 µg/mL	–	–	–
CCOC(=O)C1=C(c2ccccc2)NC(N)=NC1c1ccc(OC)cc1 (stereo not drawn) [6u]	–	14 µM and 4.5 µg/mL	> 64 µg/mL	>64 µg/mL	> 64 µg/mL	> 64 µg/mL	–	–	–	–
CCOC(=O)C1=C(c2ccccc2)NC(N)=NC1c1ccc(CC(C)C)cc1 (stereo not drawn) [7a]	4 µg/mL (≈ 10.6 µM)	7.9 µM and 2.5 µg/mL	–	>64 µg/mL	4 µg/mL (≈ 10.6 µM)	4 µg/mL (≈ 10.6 µM)	–	–	–	–
CCOC(=O)C1=C(c2ccccc2)NC(N)=NC1c1ccc(-c2ccccc2)cc1 (stereo not drawn) [7b]	4 µg/mL (≈ 10.1 µM)	9.4 µM and 3 µg/mL	4 µg/mL (≈ 10.1 µM)	>64 µg/mL	4 µg/mL (≈ 10.1 µM)	4 µg/mL (≈ 10.1 µM)	–	–	–	–
CCOC(=O)C1=C(CC)NC(N)=NC1c1ccc(CC(C)C)cc1 (stereo not drawn) [7c]	–	11 µM and 3.5 µg/mL	8 µg/mL (≈ 24.3 µM)	>64 µg/mL	4 µg/mL (≈ 12.1 µM)	–	–	–	–	–
CCOC(=O)C1=C(c2cccc(C(F)(F)F)c2)NC(N)=NC1c1cc(Cl)cc(Cl)c1 (stereo not drawn) [7e]	4 µg/mL (≈ 8.73 µM)	9.9 µM and 3.2 µg/mL	4 µg/mL (≈ 8.73 µM)	>64 µg/mL	4 µg/mL (≈ 8.73 µM)	–	–	–	–	–
CCOC(=O)C1=C(c2cccc(C(F)(F)F)c2)NC(N)=NC1c1ccc(CC(C)C)cc1 (stereo not drawn) [7f]	2 µg/mL (≈ 4.49 µM)	1.9 µM and 0.61 µg/mL	2 µg/mL (≈ 4.49 µM)	64 µg/mL	2 µg/mL (≈ 4.49 µM)	2 µg/mL (≈ 4.49 µM)	–	> 20%	–	–
CCOC(=O)C1=C(c2cccc(F)c2)NC(N)=NC1c1cc(Cl)cc(Cl)c1 (stereo not drawn) [7g]	8 µg/mL (≈ 19.6 µM)	14 µM and 4.5 µg/mL	8 µg/mL (≈ 19.6 µM)	>64 µg/mL	8 µg/mL (≈ 19.6 µM)	–	–	–	–	–
CCOC(=O)C1=C(c2cccc(F)c2)NC(N)=NC1c1ccc(CC(C)C)cc1 (stereo not drawn) [7h]	4 µg/mL (≈ 10.1 µM)	4.4 µM and 1.4 µg/mL	4 µg/mL (≈ 10.1 µM)	>64 µg/mL	4 µg/mL (≈ 10.1 µM)	–	–	–	–	–
CCOC(=O)C1=C(c2cccc(C)c2)NC(N)=NC1c1cc(Cl)cc(Cl)c1 (stereo not drawn) [7i]	8 µg/mL (≈ 19.8 µM)	16 µM and 5.1 µg/mL	8 µg/mL (≈ 19.8 µM)	>64 µg/mL	8 µg/mL (≈ 19.8 µM)	–	–	–	–	–
CCOC(=O)c1c(-c2ccccc2)nc(N)nc1-c1ccc(CC(C)C)cc1 [8a]	–	–	–	–	–	> 64 µg/mL	–	–	no inhibition was observed; also recorded: lacked antibacterial activity and DHFR inhibition	lacked antibacterial activity
CCOC(=O)C1=C(c2ccccc2)NC(N)=NC1c1ccccc1 (stereo not drawn) [compound 6]	> 64 µg/mL	18 µM and 5.8 µg/mL	> 64 µg/mL	>64 µg/mL	> 64 µg/mL	> 64 µg/mL	>64 µg/mL	–	–	–
CCOC(=O)c1c(C)nc(N)nc1-c1cc(Cl)cc(Cl)c1 [compound 10]	–	–	–	–	–	–	–	–	lacked antibacterial activity and DHFR inhibition	lost all antibacterial activity; also recorded: lacked antibacterial activity
